# Assay results as given in patent US20090306386A1, “Plant Extract Obtained by an Extraction Method by Means of Solvents of Plant Origin” (priority 2005, published 2009).
# System: xanthine/xanthine oxidase
# Assay: antioxidant activity, xanthine/xanthine oxidase test
# Assay type: biochemical
# Conditions: modified method of Rice Evans et al. and Masaki et al., n=10
# From the text: The antioxidant activity of the turmeric extract obtained with solvent No. 2 (d-limonene) were studied using the xanthine/xanthine oxidase test according to the modified method of Rice Evans et al. (Techniques in free radical research, 1991, Elsevier, Paris) and Masaki et al. (Antioxygen scavenging activity of plant extracts, Biol. Pharm. Bull., 1995, 18 (1), 162-166).
compound,measurement,value
Oc1ncnc2[nH]ncc12 [allopurinol],antioxidant activity IC50,0.06%
